Laboratory results published in patent US20250170132A1, “SALTS AND POLYMORPHIC FORMS OF MENIN INHIBITORS AND PHARMACEUTICAL COMPOSITIONS THEREOF” (Syndax Pharmaceuticals, Inc., priority 2023, published 2025).

Tests used:
Assay type in all cases: physicochemical
[1] = Polymorph screen: slurry at 50° C.; settings: slurry 50° C.
Description: (§1) X-ray powder diffraction (XRPD) • Instrument: Panalytical Empyrean • Parameters: X-Ray tube Cu (Kα radiation); Power: 45 kV×40 mA • Scanning range: 2 to 40 2θ (degree) • Step size: 0.01 degree • Scanning speed: 6.33 degree (20) per minute Thermogravimetric analysis (TGA) • Instrument: TA Instruments Discovery TGA • Parameters: Ramp 10° C. per minute, 25 to 300° C., 50 mL/min N2 sweep Differential scanning calorimetry (DSC) • Instrument: TA Instruments Discovery DSC • Parameters: Ramp 10° C. per minute, up to 300° C. Polarized light microscopy (PLM) • Instrument: Nikon Eclipse Ci POL • Camera: Nikon DS-Fi3 • Software: Nikon NIS Elements
Slurry at 50° C.—About 40 mg API was suspended and stirred in different solvents in 4 mL vials at 50° C. The solids in the slurry were characterized by XRPD after 3 days (Table 34).

[2] = Aqueous solubility of Compound A salts
Description: Solubility of Compound A citrate was determined in 3 different types of matrices: unbuffered water, citrate-buffered solutions from pH 3 to 6, and formulations consisting of citrate, advantame, methylparaben sodium, potassium sorbate, and sodium chloride at pH ranging from 3 to 6. Solubility in unbuffered water at ambient temperature was 38.5 mg/mL.
The target pH was reassessed when the F3 formulation was developed. Compound A citrate solubility studies were performed initially in simple buffered solutions to assess solubility trends as a function of pH. […] The target concentration of Compound A was therefore changed to 40 mg/mL as a compromise between drug substance and preservatives dissolution rate and stability.

[3] = Polymorph screen: temperature cycling; settings: temperature cycling 50→40→30→20→5 °C, total 2 cycles, each step 4 h, isolated at RT, XRPD
Description: as §1
The obtained solids were characterized by XRPD (Table 37).

[4] = Polymorph screen: polymer-induced crystallization
Description: as §1
The obtained solids were characterized by XRPD after 7-10 days (Table 36).

[5] = Polymorph screen: slurry at RT
Description: as §1
Slurry at RT—About 40 mg API was suspended and stirred in different solvents in 4 mL vials at RT. The solids in the slurry were characterized by XRPD after 5-7 days (Table 33).

[6] = Polymorph screen: solvent drop grinding; settings: XRPD
Description: as §1
Solvent drop grinding—About 30 mg API was ground with different solvents. The obtained solids were characterized by XRPD (Table 39).

[7] = Polymorph screen: liquid vapor diffusion
Description: as §1
The obtained solids were characterized by XRPD after 7-10 days (Table 32).

[8] = Polymorph screen: sonication induced crystallization
Description: as §1
Sonication induced crystallization—About 40 mg API was suspended and sonicated in different solvents in 4 mL vials at RT. The solids in the slurry were characterized by XRPD after 1-day (Table 38).

[9] = Solution stability studies at accelerated conditions (counterion-related degradation; Impurity A formation vs temperature, pH, time)
Description: FIG. 32 depicts Impurity A formation as a function of temperature, pH, and time in solution.
Compound A monocitrate monohydrate has at least two advantageously and unexpected characteristics. Both alone and in comparison, with Compound A salts known in the art (e.g. Compound A fumarate salts). […] Second, in the manufacturing process, Compound A fumarate requires a separate slurrying step which results in a solvate with an organic solvent. Compound A monocitrate monohydrate salt is isolated directly from ethanol:water, no slurrying step is required. […] Additionally, the Compound A monocitrate forms a monohydrate instead of a solvate with one or more organic molecules.

## CCN(C(=O)c1cc(F)ccc1Oc1cncnc1N1CC2(CCN(C[C@H]3CC[C@H](NS(=O)(=O)CC)CC3)CC2)C1)C(C)C [Compound A monocitrate monohydrate]
[1]; 1-propanol
  Crystal Form: Form A
[1]; 2-MeTHF
  Crystal Form: Form A
[1]; ACN 9:1
  Crystal Form: Form A
[1]; Anisole
  Crystal Form: Form A
[1]; Cyclohexane
  Crystal Form: Form A
[1]; Dimethoxyethane
  Crystal Form: Form A
[1]; Ethyl acetate/MeOH 3:1
  Crystal Form: Form A
[1]; Heptane
  Crystal Form: Form A
[1]; IPAc
  Crystal Form: Form A
[1]; MEK
  Crystal Form: Form A
[1]; MTBE
  Crystal Form: Form A
[1]; Methyl Acetate
  Crystal Form: Form A
[1]; NMP:CPME (3:7 v/v)
  Crystal Form: Form A
[1]; Propylene glycol:Acetone 1:1
  Crystal Form: Form A
[1]; Propylene glycol:IPA 1:1
  Crystal Form: Form A
[1]; THF 9:1
  Crystal Form: Form A
[1]; Toluene
  Crystal Form: Form A
[2]; citrate-buffered solutions and formulations, pH 3 to 6
  Effect of solution pH on solubility: maxima at both pH 3 and 6
[2]; physiological pH range from 1.2 through 6.8
  USP solubility definition: soluble
[2]; simple buffered solutions, pH 3.0 to 6.0
  Solubility trend as a function of pH: highest at pH 3.0
[2]; unbuffered water, ambient temperature, read-out: Solubility
  solubility: 38.5 mg/mL
[3]; 1,4-dioxane:H2O 9:1
  Crystal Form: Form A*
[3]; 2-MeTHF:DMF 9:1
  Crystal Form: Form A*
[3]; DMSO:Toluene 1:9
  Crystal Form: Form A*
[3]; NMP:nPA 1:9
  Crystal Form: Form A*
[4]; polymer Brij, NMP:H2O 1:9, 40° C.
  Crystal Form: Amorphous
[4]; polymer PVC, DMF:DCM 1:9, RT
  Crystal Form: Form A
[4]; polymer PVP, DMA:H2O 1:9, 40° C.
  Crystal Form: Form A
[4]; polymer PVP, NMP:H2O 1:9, 40° C.
  Crystal Form: Form A
[5]; Acetone
  Crystal Form: Form A
[5]; Benzene
  Crystal Form: Form A
[5]; CHCl3
  Crystal Form: Form A
[5]; CPME
  Crystal Form: Form A
[5]; DMA:Benzene 1:9
  Crystal Form: Form A
[5]; DMA:CHCl3 1:9
  Crystal Form: Form A
[5]; DMA:EtOH 1:9
  Crystal Form: Form A
[5]; DMF:EtOAc 1:9
  Crystal Form: Form A
[5]; DMSO (SL→Gel)
  Crystal Form: Amorphous
[5]; DMSO:IPAc 1:9
  Crystal Form: Form A
[5]; Diethylamine:EtOH 3:7
  Crystal Form: FB-2
[5]; IPA
  Crystal Form: Form A
[5]; MIBK
  Crystal Form: Form A
[5]; MeOH:MeCN 9:1
  Crystal Form: Form A
[5]; NMP:IPA 1:9
  Crystal Form: Form A
[5]; THF:H2O (aw = 0.2)
  Crystal Form: Form A
[5]; THF:H2O (aw = 0.4)
  Crystal Form: Form A
[5]; THF:H2O (aw = 0.6)
  Crystal Form: Form A
[5]; THF:H2O (aw = 0.8)
  Crystal Form: Form A
[5]; Toluene
  Crystal Form: Form A
[6]; about 30 mg API, 1,4-Dioxane
  Crystal Form: Form A
[6]; about 30 mg API, Acetone
  Crystal Form: Form A
[6]; about 30 mg API, DCM
  Crystal Form: Form A
[6]; about 30 mg API, EtOH
  Crystal Form: Form A
[6]; about 30 mg API, THF
  Crystal Form: Form A
[7]; solvent DCM, antisolvent Acetone
  Crystal Form: Form A
[7]; solvent DCM, antisolvent MTBE
  Crystal Form: Form A
[7]; solvent NMP, antisolvent MTBE
  Crystal Form: Form A
[8]; DMSO:EtOAc 1:9, XRPD after 1 day
  Crystal Form: Form A
[8]; THF, XRPD after 1 day
  Crystal Form: Form A
[9]
  reaction of counterion with the pyrimidine ring of Compound A (degradation): does not react with the pyrimidine ring of Compound A
